Reference: ChEMBL document CHEMBL1201862, “PubChem BioAssay data set” (2004)
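96-well plates; 48 h exposure; 5 concentrations. Endpoints by linear interpolation between flanking doses. Not reached: highest tested concentration assigned. GI50: concentration for 50% inhibition of growth.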 Activity calls are given as the source filed them. No stated cut-off is given here; in the data, active = GI50 up to about 1.1 µM and inactive = higher.

Legend:
Test in all cases: DTP human tumour cell line panel, 48 h
CAKI-1 = test system: CAKI-1
SK-OV-3 = test system: SK-OV-3
HCC 2998 = test system: HCC 2998
HCT-15 = test system: HCT-15
SK-MEL-28 = test system: SK-MEL-28
TK-10 = test system: TK-10
SNB-19 = test system: SNB-19
OVCAR-4 = test system: OVCAR-4
NCI-H226 = test system: NCI-H226
SF-268 = test system: SF-268
NCI/ADR-RES = test system: NCI/ADR-RES
HT-29 = test system: HT-29
SF-539 = test system: SF-539
A498 = test system: A498
OVCAR-5 = test system: OVCAR-5
ACHN = test system: ACHN
NCI-H23 = test system: NCI-H23
UACC-62 = test system: UACC-62
NCI-H522 = test system: NCI-H522
SNB-75 = test system: SNB-75

Structure (SMILES)	GI50 (CAKI-1)	GI50 (SK-OV-3)	GI50 (HCC 2998)	GI50 (HCT-15)	GI50 (SK-MEL-28)	GI50 (TK-10)	GI50 (SNB-19)	GI50 (OVCAR-4)	GI50 (NCI-H226)	GI50 (SF-268)	GI50 (NCI/ADR-RES)	GI50 (HT-29)	GI50 (SF-539)	GI50 (A498)	GI50 (OVCAR-5)	GI50 (ACHN)	GI50 (NCI-H23)	GI50 (UACC-62)	GI50 (NCI-H522)	GI50 (SNB-75)
c1cc2nnnn2nc1N1CCCC1	> 100 µM (inactive)	> 100 µM (inactive)	> 100 µM (inactive)	> 100 µM	> 100 µM (inactive)	> 100 µM (inactive)	> 100 µM (inactive)	> 100 µM (inactive)	> 100 µM (inactive)	> 100 µM (inactive)	> 100 µM (inactive)	> 100 µM (inactive)	> 100 µM (inactive)	> 100 µM (inactive)	> 100 µM (inactive)	> 100 µM (inactive)	> 100 µM (inactive)	> 100 µM (inactive)	–	–
CCOc1cc(NC(C)=O)ccc1C(=O)NN1C(=O)/C(=C/c2cc(OC)c(OC)c(OC)c2)N=C1c1ccccc1	> 100 µM (inactive)	> 100 µM (inactive)	> 100 µM (inactive)	> 100 µM	> 100 µM (inactive)	–	> 100 µM (inactive)	> 100 µM (inactive)	> 100 µM (inactive)	86.9 µM (inactive)	> 100 µM (inactive)	> 100 µM (inactive)	> 100 µM (inactive)	> 100 µM (inactive)	> 100 µM (inactive)	> 100 µM (inactive)	> 100 µM (inactive)	> 100 µM (inactive)	28.3 µM (inactive)	–
CCN(CC)C(=S)SS(=O)(=O)c1cccc(N)c1	> 100 µM (inactive)	> 100 µM (inactive)	> 100 µM (inactive)	> 100 µM	> 100 µM (inactive)	> 100 µM (inactive)	> 100 µM (inactive)	> 100 µM (inactive)	> 100 µM (inactive)	> 100 µM (inactive)	> 100 µM (inactive)	> 100 µM (inactive)	> 100 µM (inactive)	> 100 µM (inactive)	> 100 µM (inactive)	> 100 µM (inactive)	> 100 µM (inactive)	> 100 µM (inactive)	> 100 µM (inactive)	–
Cc1ccc2nc(SCC(=O)N/N=C3\C(=O)Nc4ccccc43)n(-c3ccccc3)c(=O)c2c1	18.6 µM (inactive)	13.8 µM (inactive)	14.8 µM (inactive)	17.2 µM	15.4 µM (inactive)	15.5 µM (inactive)	17.5 µM (inactive)	13.2 µM (inactive)	16.2 µM (inactive)	13.7 µM (inactive)	13.3 µM (inactive)	19.4 µM (inactive)	5.7 µM (inactive)	14.9 µM (inactive)	15.8 µM (inactive)	13.8 µM (inactive)	16.4 µM (inactive)	16.9 µM (inactive)	–	–
NC(=O)N/N=C1/CCC(O)CC1CC(=O)O (stereo not given)	> 100 µM (inactive)	> 100 µM (inactive)	–	> 100 µM	> 100 µM (inactive)	> 100 µM (inactive)	> 100 µM (inactive)	> 100 µM (inactive)	> 100 µM (inactive)	> 100 µM (inactive)	> 100 µM (inactive)	> 100 µM (inactive)	> 100 µM (inactive)	> 100 µM (inactive)	> 100 µM (inactive)	> 100 µM (inactive)	> 100 µM (inactive)	> 100 µM (inactive)	> 100 µM (inactive)	–
CCOC(=O)c1cc2c([nH]1)c(O)cc1c2ccn1Cc1ccccc1	22 µM (inactive)	20.7 µM (inactive)	19 µM (inactive)	15.1 µM	17.5 µM (inactive)	–	14.2 µM (inactive)	19.9 µM (inactive)	15.1 µM (inactive)	19.5 µM (inactive)	17.3 µM (inactive)	16.6 µM (inactive)	19.4 µM (inactive)	29.8 µM (inactive)	17.7 µM (inactive)	–	13.7 µM (inactive)	15.5 µM (inactive)	–	22.2 µM (inactive)
N[C@@H]1C[C@H](N)c2c(Cl)sc(Cl)c21	> 100 µM (inactive)	–	> 100 µM (inactive)	> 100 µM	> 100 µM (inactive)	–	> 100 µM (inactive)	> 100 µM (inactive)	> 100 µM (inactive)	–	> 100 µM (inactive)	–	> 100 µM (inactive)	61.5 µM (inactive)	> 100 µM (inactive)	> 100 µM (inactive)	> 100 µM (inactive)	> 100 µM (inactive)	–	> 100 µM (inactive)
CC(=O)NCCC1CN(C(=O)/C=C\C#C[Si](C)(C)C)c2ccccc21 (stereo not given)	13.8 µM (inactive)	25.3 µM (inactive)	20.1 µM (inactive)	17.2 µM	50.8 µM (inactive)	23 µM (inactive)	26.3 µM (inactive)	18.9 µM (inactive)	14.9 µM (inactive)	48.2 µM (inactive)	22.1 µM (inactive)	20.3 µM (inactive)	20.3 µM (inactive)	45.3 µM (inactive)	17.1 µM (inactive)	26.6 µM (inactive)	11.9 µM (inactive)	8.49 µM (inactive)	10.5 µM (inactive)	–
COc1ccc(C2SCC(=O)N2NC(=O)c2ccc(NC(C)=O)cc2)c(OC)c1 (stereo not given)	–	> 100 µM (inactive)	> 100 µM (inactive)	> 100 µM	> 100 µM (inactive)	> 100 µM (inactive)	> 100 µM (inactive)	> 100 µM (inactive)	> 100 µM (inactive)	> 100 µM (inactive)	> 100 µM (inactive)	> 100 µM (inactive)	> 100 µM (inactive)	> 100 µM (inactive)	> 100 µM (inactive)	> 100 µM (inactive)	> 100 µM (inactive)	> 100 µM (inactive)	–	> 100 µM (inactive)
CCOC(=O)c1nc2ccccc2nc1Oc1ccc(OC)cc1	–	> 100 µM (inactive)	–	> 100 µM	> 100 µM (inactive)	> 100 µM (inactive)	> 100 µM (inactive)	> 100 µM (inactive)	> 100 µM (inactive)	> 100 µM (inactive)	> 100 µM (inactive)	> 100 µM (inactive)	> 100 µM (inactive)	> 100 µM (inactive)	> 100 µM (inactive)	> 100 µM (inactive)	–	> 100 µM (inactive)	29 µM (inactive)	–
Cc1cc(S(=O)(=O)[N-]/C(=N/S(=O)(=O)c2ccc(Cl)cc2)[n+]2ccc(N(C)C)cc2)c(S)cc1Cl	> 100 µM (inactive)	41.2 µM (inactive)	> 100 µM (inactive)	75.7 µM	> 100 µM (inactive)	49.2 µM (inactive)	–	55.5 µM (inactive)	33.8 µM (inactive)	89.9 µM (inactive)	> 100 µM (inactive)	44.6 µM (inactive)	83.4 µM (inactive)	26.4 µM (inactive)	61.5 µM (inactive)	> 100 µM (inactive)	> 100 µM (inactive)	–	28.7 µM (inactive)	–
COc1ccc(CC2COc3cc(OC)cc(OC)c3C2=O)cc1 (stereo not given)	17.5 µM (inactive)	19.8 µM (inactive)	–	9.51 µM	20.7 µM (inactive)	21.3 µM (inactive)	25.2 µM (inactive)	17.2 µM (inactive)	–	32.7 µM (inactive)	8.34 µM (inactive)	17.6 µM (inactive)	14.4 µM (inactive)	79.3 µM (inactive)	24.7 µM (inactive)	46.8 µM (inactive)	23.6 µM (inactive)	32.8 µM (inactive)	9.14 µM (inactive)	–
